According to PMC10053369, “Recombinant Analogs of Sea Anemone Kunitz-Type Peptides Influence P2X7 Receptor Activity in Neuro-2a Cells” (Marine Drugs, 2023):
pKd: −log10 of the molar value. Positions of bridges follow the written chain, without caps; N, C: chain ends. No end group written: not given here.

Assays:
P2X7 in Neuro-2a cells = assay: ATP-induced YO-PRO-1 uptake (P2X7 pore formation); format: cell-based, mouse; settings: short-term effect
Description: Neuro-2a neuroblastoma cells (ATCC® CCL-131™) were obtained from American Type Culture Collection (Manassas, VA, USA). The cells were cultivated in DMEM medium (BioloT, St. Petersburg, Russia) supplemented with 10% of fetal bovine serum (BioloT, St. Petersburg, Russia) and 1% penicillin/streptomycin (BioloT, St. Petersburg, Russia) at 37 °C and 5% CO2. Initially, cells were incubated in cultural flasks until sub-confluent (~80%). For testing, Neuro-2a cells were seeded in 96-well plates and experiments were started after 24 h.
Neuro-2a cells were seeded in 96 well plates at a density of 4 × 10^4 cells/well and incubated in DMEM for 24 h, 37 °C, 5% CO2. Then the cells were washed once with HBSS and filled with 180 μL of the same buffer. YO-PRO-1 (Sigma-Aldrich, St. Louis, MO, USA, 5 μM final concentration) was loaded into the wells, the cells were incubated for 15 min at 37 °C. Further, the studied peptides were added to the cells at concentrations of 10, 1, 0.1 and 0.01 μM and incubated for 10 min at 37 °C. After that ATP (4 mM final concentration) was added and the plates were incubated for an additional 10 min. The standard P2X7R inhibitor, A438079 (Sigma-Aldrich, St. Louis, MO, USA), was used as inhibitory control. Then the cells were washed three times with the buffer solution and fluorescence intensity was measured with PHERAstar FS plate reader (BMG, LABTECH, Ortenberg, Germany) at λex = 485 nm and λem= 520 nm in the “End Point” mode. The effectiveness of compounds was evaluated relative to control without ATP.
All data were obtained in three independent replicates and calculated values were expressed as mean ± standard error of the mean (SEM). The Student’s t-test was performed using SigmaPlot 14.0 (Systat Software Inc., San Jose, CA, USA) to determine statistical significance.

[1] = biological target: T1, hP2X7 (47–334 a.a., extracellular domain, 36.8 kDa) (Homo sapiens, UniProt Q99572); assay: Surface plasmon resonance (Biacore 3000); format: binding
T1 construct: hP2X7 (47–334 a.a., extracellular domain, 36.8 kDa); purchased Abbexa LTD, Cambridge, UK abx167020
T1 sequence (Q99572 47-334): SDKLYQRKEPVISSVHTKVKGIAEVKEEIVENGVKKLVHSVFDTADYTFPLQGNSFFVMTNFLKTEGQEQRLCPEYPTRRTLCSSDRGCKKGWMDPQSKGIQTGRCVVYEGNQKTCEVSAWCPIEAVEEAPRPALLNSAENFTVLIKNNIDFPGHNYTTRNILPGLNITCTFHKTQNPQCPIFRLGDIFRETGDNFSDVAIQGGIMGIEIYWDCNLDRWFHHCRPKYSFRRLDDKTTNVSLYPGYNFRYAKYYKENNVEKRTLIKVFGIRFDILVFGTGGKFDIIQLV
Description: SPR analysis was performed at 25 °C using a Biacore® 3000 optical biosensor (GE Healthcare, Chicago, IL, USA) and CM5 sensor chips. HBS-N (10 mM HEPES, 150 mM NaCl, pH 7.4) (Cytiva, Chicago, IL, USA) was used as a working buffer for the immobilization of hP2X7 (47–334 a.a., extracellular domain, 36.8 kDa) (abx167020 Abbexa LTD, Cambridge, UK). The carboxyl groups of the dextran biosensor chip were activated for 5 min by introducing a 1:1 mixture of 0.2 M 1-ethyl-3-(3-dimethylaminopropyl)carbodiimide hydrochloride (EDC) and 0.05 M N-hydroxysuccinimide (NHS) at a rate of 5 µL/min followed by a 1 min wash with HBS-N buffer at the same flow rate. Next, hP2X7 (15 μg/mL) in 10 mM sodium acetate (pH 5.0) was injected into the working channel of the biosensor for 10 min at a flow rate of 5 μL/min. The final level of immobilization was 12300 RU (12.3 ng of protein). The control channel without immobilized P2X7R was used to correct the effects of the nonspecific binding of analytes to the chip surface.
Lyophilized peptides were prepared as 100 μM stock solutions in HBS-N buffer. Experimental peptide samples were prepared in the range of 5–100 μM. The samples were injected through the channels of the biosensor (working and reference) at a flow rate of 10 μL/min for 6 min. The dissociation of the formed peptide/P2X7 complexes was recorded for at least 6 min from the moment of injection at the same flow rate after the injection of the sample. After each cycle of the biosensor, the bound analyte was removed by double injection of the regenerating solution (2 M NaCl, 1% CHAPS) at a flow rate of 30 μL/min for 30 s.
SPR sensorgrams were processed in Biacore 3000 Evaluation Software v.1.0 (GE Healthcare, Chicago, IL, USA) and BIAevaluation Software v. 4.1.1 (GE Healthcare, Chicago, IL, USA) using “1:1 binding (Langmuir)” and “two-state binding (conformational change)” data processing models.
The 1:1 (Langmuir) binding model is a 1:1 interaction model between a compound (C) and an immobilized protein (P) and is equivalent to the Langmuir isotherm for surface adsorption: C + P ↔ CP.
The two-state binding (conformational change) model describes the 1:1 binding of a compound (C) to an immobilized protein (P) followed by a conformational change in the complex (CP ↔ CP*). It is assumed that the conformationally changed complex can dissociate only by the reverse conformational change: C + P ↔ CP ↔ CP*. The final kinetic parameters were obtained from the models that best agree with the experimental curves for the minimum of the obtained value of chi2. The equations describing the models used are as follows: • (1) 1:1 (Langmuir) binding: Kd = koff/kon, where Kd is the equilibrium dissociation constant, koff is the dissociation rate constant, kon is the association rate constant. • (2) Reaction of two states (with conformational change): Kd = koff1/kon1 × (1 + kon2/koff2) − 1, where Kd is the equilibrium dissociation constant, koff1 is the dissociation rate constant, kon1 is the association rate constant, kon2 is the direct association rate constant for the CP ↔ transition CP*, koff2 is the inverse dissociation rate constant for the CP ↔ CP* transition.
The model describing the interaction was chosen according to the lowest chi2 parameter’s value. Chi2 is a measure of the average squared residual between the experimental data and the fitted curve.

[2] = model: binding with two states (CP ↔ CP* transition), 25 °C, HBS-N pH 7.4, average ± SD, n = 3
[3] = model: binding with two states, 25 °C, HBS-N pH 7.4, average ± SD, n = 3

RGICSEPKVVGPCKAGLRRFYYDSETGECKPFIYGGCKGNKNNFETLHACRGICRA (disulfide 4-54, 13-37, 29-50 (inferred)) [HCRG1]
entry of YO-PRO-1 into cells (summary in discussion) (P2X7 in Neuro-2a cells): regulating the entry of low molecular weight fluorescent dye YO-PRO-1 into cells
affinity to P2X7 ([1]; SPR, peptides 5–100 μM): highest affinity
koff2 [1, 2]: (1.5 ± 0.20) × 10^−3 c^−1
kon2 [1, 2]: (8.5 ± 1.0) × 10^−3 mole^−1c^−1
koff1 [1, 3]: (4.37 ± 0.57) × 10^−2 c^−1
kon1 [1, 3]: (9.20 ± 1.10) × 10^2 mole^−1c^−1
pKd ([1]; model: binding with two states, 25 °C, HBS-N pH 7.4, n = 3): 5.15
